How the values were obtained:
[1] = tested on: human hair follicle dermal papilla cells (hFDPC); experiment: Human follicle dermal papilla cell (hFDPC) proliferation, cell viability assay; type: cell-based; conditions: hFDPCs from donors 25-83 years old; vs DMSO control
Method: The ability of a compound or salt of the present disclosure to increase proliferation of human hair follicle dermal papilla cells (hFDPC) was tested using a cell viability assay, such as the Promega CellTiter-Glo® Luminescent Cell Viability Assay, MTT cell proliferation assay (ATCC® 30-1010K), or manual cell counting. The compound or salt was added at various concentrations spanning at least a 2-log range. hFDPCs were derived from multiple donors ranging from 25-83 years old and cultured on tissue-treated plastic using predefined growth media supplemented with 6-bromoindirubin-3′-Oxime (BIO), recombinant bone morphogenetic protein-2 (BMP-2), and basic fibroblast growth factor (FGFβ), a combination previously found to preserve in situ dermal papilla gene signatures. […] In TABLE 12, A represents less than 20% increased proliferation of hFDPCs, B represents a 20-40% increase, and C represents more than a 40% increase in the proliferation of hFDPCs.

[2] = Stability on open-air storage, LCMS/HPLC-UV; type: physicochemical
Method: A sample was analyzed for stability using LCMS. In both cases, the peak at 1.25 min was determined to be product I-1, while the impurity at 0.66 min was identified as the hydrolysis product 3-B04, as referenced in Scheme 9b. After analysis, the sample was allowed to stand in open air overnight. […] The purity of the compound in FIG. 7B was analyzed to be 95.3% (254 nm), and in FIG. 7D to be 90.61% (254 nm) after standing overnight in air. […] The compound gradually decomposed into compound 3-B04 and propane sulfonic acid.

[3] = Structural stability in solvent mixtures at elevated temperature, LC-UV; type: physicochemical; conditions: for Purity (LC-UV) after stirring: 80° C., 2 hrs
Method: Additionally, the ability of a compound or salt of the present disclosure was evaluated at room temperature as well as at 60° C. for varying periods of time (FIG. 1B). The structural stability of compound I-1 was further explored by stirring this compound in 2 different solvent mixtures at elevated temperatures for 2 hours. (TABLE 13). The samples were analyzed by LC-UV after stirring for 2 hrs (FIG. 2).

[4] = Stability in example compositions, HPLC-UV; type: physicochemical; conditions: compositions of TABLE 2-TABLE 11, 8 months at room temperature
Excerpt: Example of composition (TABLE 2-TABLE 11) preserves the structure and inhibits the hydrolysis of compound I-1, even after storage of 8 months at room temperature.

[5] = Stability in DMI solution, LCMS/HPLC-UV; type: physicochemical
Method: A sample containing compound I-1 was prepared in 1,3-Dimethyl-2-imidazolidinone (DMI), sealed, and stored at room temperature for 7 days. Another sample containing compound I-1 was prepared in DMI and left open for 8 days. The purity of both samples was assessed using LCMS. […] The purity in FIG. 8B was determined to be 92.9%, and the purity in FIG. 8D was also found to be 92.9%.

[6] = Thermal degradation on distillation, NMR; type: physicochemical; conditions: distillation at 185° C. (after 30 minutes at 160° C.)
Method: Thermal degradation of compound I-1 was evaluated at 160° C. and 185° C. Pure compound I-1 (1.2 g), in the form of a brown oil, was subjected to distillation for 30 minutes at 160° C. When no product was observed, distillation was attempted at 185° C., albeit unsuccessfully.

[7] = target: T1, cytochrome P450 3A4 (CYP3A4) (Homo sapiens, UniProt P08684); experiment: P450-Glo CYP3A4 Assay and Screening System; type: in vitro ADME; conditions: 50 or 5 μM
T1 construct: purchased Promega
T1 sequence (P08684 whole entry): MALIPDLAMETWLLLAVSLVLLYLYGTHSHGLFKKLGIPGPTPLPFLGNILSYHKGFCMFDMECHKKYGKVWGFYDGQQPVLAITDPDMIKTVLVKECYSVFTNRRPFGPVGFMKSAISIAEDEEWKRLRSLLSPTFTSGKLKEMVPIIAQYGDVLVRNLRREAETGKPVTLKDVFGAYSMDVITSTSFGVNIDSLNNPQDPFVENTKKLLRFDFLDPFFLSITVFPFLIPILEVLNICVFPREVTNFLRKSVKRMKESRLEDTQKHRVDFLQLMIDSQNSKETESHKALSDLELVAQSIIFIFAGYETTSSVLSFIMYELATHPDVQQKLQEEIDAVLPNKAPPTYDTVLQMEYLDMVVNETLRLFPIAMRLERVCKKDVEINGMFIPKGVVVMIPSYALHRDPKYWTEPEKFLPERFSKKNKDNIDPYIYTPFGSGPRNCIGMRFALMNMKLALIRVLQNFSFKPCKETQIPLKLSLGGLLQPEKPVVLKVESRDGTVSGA
Method: A P450-Glo™ CYP3A4 Assay and Screening System (Promega) was employed to assess the inhibitory potential of the example compounds against CYP3A4 at concentrations of either 50 or 5 μM. […] Vehicle represents 0.1% DMSO and […] is a known cytochrome P450 3A4 inhibitor .

[8] = tested on: primary human follicle dermal papilla cells (hFDPCs); experiment: ROS-Glo assay, intracellular reactive oxygen species; type: cell-based; conditions: 50 or 5 μM
Method: A ROS-Glo™ assay (Promega) was employed to assess the production of intracellular reactive oxygen species (ROS) for the example compounds at concentrations of either 50 or 5 μM. […] Vehicle represents 0.1% DMSO and DMNQ represents 2,3-dimethoxy-1,4-naphthalenedione, a known ROS-inducer.

## CSc1nc(-c2ccco2)nn1S(C)(=O)=O [VII-3]
[1]
  Increase Proliferation of hFDPCs (%): C (C represents more than a 40% increase in the proliferation of hFDPCs)

## CCSc1nc(-c2ccco2)nn1S(C)(=O)=O [I-2]
[1]
  Increase Proliferation of hFDPCs (%): C (C represents more than a 40% increase in the proliferation of hFDPCs)

## COCCSc1nc(-c2ccco2)nn1S(C)(=O)=O [I-3]
[1]
  Increase Proliferation of hFDPCs (%): C (C represents more than a 40% increase in the proliferation of hFDPCs)

## CCCS(=O)(=O)n1nc(-c2ccco2)nc1SC [I-4]
[1]
  Increase Proliferation of hFDPCs (%): B (B represents a 20-40% increase)

## CCCCCS(=O)(=O)n1nc(-c2ccco2)nc1SCC [I-6]
[1]
  Increase Proliferation of hFDPCs (%): B (B represents a 20-40% increase)

## CCCS(=O)(=O)n1nc(-c2ccco2)nc1SCCOCCOC [I-1]
[1]
  Increase Proliferation of hFDPCs (%): C (C represents more than a 40% increase in the proliferation of hFDPCs)
[2]; 24 hours open-air exposure, room temperature
  Purity (254 nm) after standing overnight in air: 90.61%
[2]; before air exposure (baseline)
  Purity (254 nm), freshly synthesized material post-workup: 95.3%
[2]; room temperature, decomposes into 3-B04 and propane sulfonic acid
  Stability on storage in open air: hydrolyzed upon storage in open air at room temperature
[3]; 0.1% (v/v) HCOOH in H2O/0.1% (v/v) HCOOH in MeCN 1:1
  Purity (LC-UV) after stirring: 95%
[3]; EtOAc/Heptane 1:1
  Purity (LC-UV) after stirring: >99%
[3]; acidic conditions, 2 hrs elevated temperature
  Degradation in acidic conditions: minor degradation
[3]; organic solvents used for straight phase column chromatography, 2 hrs elevated temperature
  Structural stability in organic solvents: very stable
[4]
  Hydrolysis in example composition on storage: minimal hydrolysis
[5]; 1,3-Dimethyl-2-imidazolidinone (DMI), open air, 8 days
  Purity (254 nm) in DMI, left open: 92.9%
[5]; 1,3-Dimethyl-2-imidazolidinone (DMI), sealed, room temperature, 7 days
  Purity (254 nm) in DMI, sealed: 92.9%
[5]; even when solution exposed to air
  Stability in DMI: appeared to be stable
[6]
  Thermal degradation: slightly decomposing

## CCCCCS(=O)(=O)n1nc(-c2ccco2)nc1SCCOCCOC [I-5]
[1]
  Increase Proliferation of hFDPCs (%): C (C represents more than a 40% increase in the proliferation of hFDPCs)
[7]
  Inhibition of CYP3A4 activity: potent inhibitory potential
[8]
  Production of intracellular ROS (oxidative stress): Elevated levels of ROS
